Assay results from patent US20060069132A1, “Azolecarboxamide herbicides” (priority 2004, published 2006).

Columns and labels:
giant foxtail = test: Test C pre-/postemergence herbicide test; assay type: in vivo, Setaria faberi; conditions: for Foxtail, Giant plant response rating: 500 g ai/ha
Summary of the method: (§1)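 Visual ratings on a 0–100 scale (100 = complete control) made versus untreated controls after 12 to 14 greenhouse days. Test chemicals, formulated in surfactant-containing non-phytotoxic solvent, applied preemergence to planted seeds or postemergence to 1- to 4-leaf plants (2 to 18 cm).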

morningglory [1] = test: Test A pre-/postemergence herbicide test; assay type: in vivo, Ipomoea spp.
Summary of the method: (§2)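 Visual injury scores on a 0–100 scale (100 = complete control) taken about ten days post-treatment in greenhouse against untreated controls; dash means no result. Treatments: preemergence soil spray and postemergence spray to runoff on one- to two-leaf plants 2 to 10 cm tall, surfactant-containing formulation.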

corn = test: Test C pre-/postemergence herbicide test; assay type: in vivo, Zea mays; conditions: for Corn plant response rating: 500 g ai/ha
Summary of the method: as §1

Surinam grass = test: Test C pre-/postemergence herbicide test; assay type: in vivo, Urochloa decumbens; conditions: for Surinam Grass plant response rating: 500 g ai/ha
Summary of the method: as §1

[2] = test system: common (oilseed) sunflower; test: Test C pre-/postemergence herbicide test; assay type: in vivo, Helianthus annuus
Summary of the method: as §1

yellow nutsedge = test: Test C pre-/postemergence herbicide test; assay type: in vivo, Cyperus esculentus; conditions: for Nutsedge, Yellow plant response rating: 500 g ai/ha
Summary of the method: as §1

velvetleaf = test: Test A pre-/postemergence herbicide test; assay type: in vivo, Abutilon theophrasti
Summary of the method: as §2

woolly cupgrass = test: Test C pre-/postemergence herbicide test; assay type: in vivo, Eriochloa villosa; conditions: for Cupgrass, Woolly plant response rating: 500 g ai/ha
Summary of the method: as §1

lambsquarters = test: Test C pre-/postemergence herbicide test; assay type: in vivo, Chenopodium album; conditions: for Lambsquarters plant response rating: 500 g ai/ha
Summary of the method: as §1

morningglory [3] = test: Test C pre-/postemergence herbicide test; assay type: in vivo, Ipomoea coccinea; design: key to Plant response rating, Morningglory: 0 = no effect, 100 = complete control; conditions: for Morningglory plant response rating: 500 g ai/ha
Summary of the method: as §1

[4] = 125 g ai/ha, scale 0 (no effect) to 100 (complete control), visual, 12 to 14 days, preemergence
[5] = 250 g ai/ha, scale 0 to 100 (0 no effect, 100 complete control), visual, 12 to 14 days, preemergence
[6] = Postemergence, 250 g ai/ha, scale 0 to 100, 0 no effect, 100 complete control
[7] = Preemergence, scale 0 to 100, 0 no effect, 100 complete control
[8] = postemergence, 125 g ai/ha, scale 0 to 100
[9] = Postemergence, 500 g ai/ha, 0 to 100 scale, 0 no effect, 100 complete control
[10] = Postemergence, 2000 g ai/ha, 0 to 100 scale, 0 no effect, 100 complete control
[11] = Preemergence, 2000 g ai/ha, visual rating, 0 to 100 scale (0 no effect, 100 complete control)

`CCn1nc(C(C)(C)C)cc1C(=O)Nc1cccc(SC(F)(F)F)c1` [Compound 130] was tested, and the “Plant response rating (0 = no effect, 100 = complete control), Foxtail, Giant” value (giant foxtail; 62 g ai/ha, preemergence) was 40, the “Plant response rating, Foxtail, Giant” value (giant foxtail; [4]) was 45 and the “Plant response rating, Foxtail, Giant” value (giant foxtail; [5]) was 65. The “Foxtail, Giant plant response rating” value (giant foxtail; Postemergence, scale 0 to 100) was 30, the “Plant response rating, Foxtail, Giant” value (giant foxtail; [6]) was 15 and the “Foxtail, Giant plant response rating” value (giant foxtail; [7]) was 95. The “Plant response rating, Foxtail, Giant” value (giant foxtail; [8]) was 10, the “Morningglory plant response rating” value (morningglory [1]; [9]) was 20 and the “Plant response rating, Morningglory” value (morningglory [1]; [10]) was 25. For the same compound, the “Morningglory plant response rating” value (morningglory [1]; Preemergence, 500 g ai/ha, visual rating, 0 to 100 scale (0 no effect, 100 complete control)) was 10, the “Morningglory plant response rating” value (morningglory [1]; [11]) was 15 and the “Plant response rating (0 = no effect, 100 = complete control), Corn” value (corn; 62 g ai/ha, preemergence) was 0. For the same compound, the “Plant response rating, Corn” value (corn; [4]) was 5, the “Plant response rating, Corn” value (corn; [5]) was 5 and the “Corn plant response rating” value (corn; Postemergence, scale 0 to 100) was 50. For the same compound, the “Plant response rating, Corn” value (corn; [6]) was 45, the “Corn plant response rating” value (corn; [7]) was 10 and the “Plant response rating, Corn” value (corn; [8]) was 45. The “Plant response rating (0 = no effect, 100 = complete control), Surinam Grass” value (Surinam grass; 62 g ai/ha, preemergence) was 5, the “Plant response rating, Surinam Grass” value (Surinam grass; [4]) was 5 and the “Surinam Grass plant response rating” value (Surinam grass; Postemergence, scale 0 to 100) was 60. The “Plant response rating, Surinam Grass” value (Surinam grass; [6]) was 30, the “Surinam Grass plant response rating” value (Surinam grass; [7]) was 60 and the “Plant response rating, Surinam Grass” value (Surinam grass; [8]) was 10. For the same compound, the “Plant response rating (0 = no effect, 100 = complete control), Sunflower” value ([2]; 62 g ai/ha, preemergence) was 0, the “Plant response rating, Sunflower” value [2, 4] was 0 and the “Sunflower plant response rating” value ([2]; Preemergence, 500 g ai/ha, scale 0 to 100, 0 no effect, 100 complete control) was 0. For the same compound, the “Plant response rating (0 = no effect, 100 = complete control), Nutsedge, Yellow” value (yellow nutsedge; 62 g ai/ha, preemergence) was 0, the “Plant response rating, Nutsedge, Yellow” value (yellow nutsedge; [4]) was 0 and the “Nutsedge, Yellow plant response rating” value (yellow nutsedge; Postemergence, scale 0 to 100) was 0. The “Plant response rating, Nutsedge, Yellow” value (yellow nutsedge; [6]) was 0, the “Nutsedge, Yellow plant response rating” value (yellow nutsedge; [7]) was 0 and the “Plant response rating, Nutsedge, Yellow” value (yellow nutsedge; [8]) was 0. For the same compound, the “Velvetleaf plant response rating” value (velvetleaf; [9]) was 20, the “Plant response rating, Velvetleaf” value (velvetleaf; [10]) was 20 and the “Velvetleaf plant response rating” value (velvetleaf; [11]) was 30. The “Velvetleaf plant response rating” value (velvetleaf; preemergence, 500 g ai/ha, visual injury, 0 to 100 scale (0 no effect, 100 complete control)) was 20, the “Plant response rating (0 = no effect, 100 = complete control), Cupgrass, Woolly” value (woolly cupgrass; 62 g ai/ha, preemergence) was 5 and the “Plant response rating, Cupgrass, Woolly” value (woolly cupgrass; [4]) was 10. For the same compound, the “Plant response rating, Cupgrass, Woolly” value (woolly cupgrass; [5]) was 40, the “Cupgrass, Woolly plant response rating” value (woolly cupgrass; Postemergence, scale 0 to 100) was 80 and the “Plant response rating, Cupgrass, Woolly” value (woolly cupgrass; [6]) was 60. The “Cupgrass, Woolly plant response rating” value (woolly cupgrass; [7]) was 70, the “Plant response rating, Cupgrass, Woolly” value (woolly cupgrass; [8]) was 50 and the “Plant response rating (0 = no effect, 100 = complete control), Lambsquarters” value (lambsquarters; 62 g ai/ha, preemergence) was 10. For the same compound, the “Plant response rating, Lambsquarters” value (lambsquarters; [4]) was 30, the “Lambsquarters plant response rating” value (lambsquarters; Postemergence, scale 0 to 100) was 100 and the “Plant response rating, Lambsquarters” value (lambsquarters; [6]) was 100. For the same compound, the “Lambsquarters plant response rating” value (lambsquarters; [7]) was 80, the “Plant response rating, Lambsquarters” value (lambsquarters; [8]) was 100 and the “Plant response rating (0 = no effect, 100 = complete control), Morningglory” value (morningglory [3]; 62 g ai/ha, preemergence) was 0. For the same compound, the “Plant response rating, Morningglory” value (morningglory [3]; [4]) was 0, the “Morningglory plant response rating” value (morningglory [3]; Postemergence, scale 0 to 100) was 100 and the “Plant response rating, Morningglory” value (morningglory [3]; [6]) was 80. The “Morningglory plant response rating” value (morningglory [3]; [7]) was 30 and the “Plant response rating, Morningglory” value (morningglory [3]; [8]) was 40.
